According to ChEMBL document CHEMBL2151020, “JBIR-129 and -139, cytotoxic 34-membered polyol macrolides of microbial origin” (J Nat Prod, 2012):

System: SK-OV-3
Assay: Cytotoxicity against human SKOV3 cells after 72 hrs by WST8 assay
Type: functional, cell-based
Settings: SK-OV-3, 72 h

In order of rising IC50:
1. COc1cccc2c1C(=O)c1c(O)c3c(c(O)c1C2=O)C[C@@](O)(C(=O)CO)C[C@@H]3O[C@H]1C[C@H](N)[C@H](O)[C@H](C)O1 [DOXORUBICIN]  30 nM
2. CCC(O[C@H]1CC[C@H](O[C@H]2CC[C@H](O)[C@@H](C)O2)[C@@H](C)O1)C(C)C(O)C(C)C(O)C(C)C1C/C=C/C=C/C(O)CC(O)C(C)C(O)CC(O)C(C)C2CC(O)C(O)C(O)(CC(O[C@@H]3O[C@H](C)[C@@H](O)[C@H](O[C@H]4C[C@@H](O)[C@H](O)[C@@H](C)O4)[C@H]3O[C@@H]3O[C@H](C)[C@@H](O)[C@H](O)[C@H]3O)C(C)CCC(O)CC(O)C/C=C/C=C/C(=O)O1)O2 (stereo partly drawn)  300 nM
3. CCC(O[C@H]1CC[C@H](O[C@H]2CC[C@H](O)[C@@H](C)O2)[C@@H](C)O1)C(C)C(O)C(C)C(O)C(C)C1C/C=C/C=C/C(O)CC(O)C(C)C(O)CC(O[C@@H]2O[C@H](CO)[C@H](O)[C@H](O)[C@H]2NC(C)=O)C(C)C2CC(O)C(O)C(O)(CC(O[C@@H]3O[C@H](C)[C@@H](O)[C@H](O[C@H]4C[C@@H](O)[C@H](O)[C@@H](C)O4)[C@H]3O[C@@H]3O[C@H](C)[C@@H](O)[C@H](O)[C@H]3O)C(C)CCC(O)CC(O)C/C=C/C=C/C(=O)O1)O2 (stereo partly drawn)  400 nM
